Experimental findings from ChEMBL document CHEMBL1201862, “PubChem BioAssay data set” (2004) are described below.

For one assay, the target named is Large T antigen (Simian virus 40, UniProt P03070). The format is functional, Betapolyomavirus macacae.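 Also: Confirmatory-stage PubChem screen for compounds that inhibit SV40 T antigen.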
The next assay concerns the target T1, Estrogen receptor (Homo sapiens, UniProt P03372).
T1 sequence (P03372 whole entry): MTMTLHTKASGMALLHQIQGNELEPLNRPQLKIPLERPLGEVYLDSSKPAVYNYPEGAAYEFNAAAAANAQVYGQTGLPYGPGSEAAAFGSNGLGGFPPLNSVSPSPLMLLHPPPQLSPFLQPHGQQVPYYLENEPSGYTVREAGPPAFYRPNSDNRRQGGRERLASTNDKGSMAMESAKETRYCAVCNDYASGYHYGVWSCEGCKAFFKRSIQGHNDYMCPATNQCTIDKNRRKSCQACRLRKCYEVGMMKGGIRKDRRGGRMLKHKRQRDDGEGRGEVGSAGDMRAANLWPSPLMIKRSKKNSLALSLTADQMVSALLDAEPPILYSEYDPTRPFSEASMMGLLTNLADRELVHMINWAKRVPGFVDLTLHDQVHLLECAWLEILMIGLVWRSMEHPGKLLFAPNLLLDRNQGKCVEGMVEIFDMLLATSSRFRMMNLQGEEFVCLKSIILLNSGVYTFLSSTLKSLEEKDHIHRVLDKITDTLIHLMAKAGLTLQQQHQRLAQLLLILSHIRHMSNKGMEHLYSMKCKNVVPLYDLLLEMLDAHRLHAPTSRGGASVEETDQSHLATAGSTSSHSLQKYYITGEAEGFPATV
Nature of the assay: ERα coactivator recruitment enhancers – biochemical, TR-FRET, ERα LBD, dose response (AID 737). A general note: TR-FRET usually uses a lanthanide donor and a delayed reading to cut background.

Assay [1] is described as follows: Counterscreen for IDE inhibitors: Luminescence-based cell-based high throughput dose response assay to identify compounds that are cytotoxic to HEK cells. [Related pubchem assays: 434962 (Primary screen (IDE inhibitors in singlicate)), 449730 (Counterscreen (Cytotoxicity in triplicate)), 435028 (Confirmation (IDE inhibitors in triplicate)) …. The settings on record: HEK293. The format is functional. In general terms: The purpose of a counterscreen is to sort out artefacts and off-target activity.

For another assay, the target named is T2, Insulin-degrading enzyme (Homo sapiens, UniProt P14735).
T2 sequence (P14735 whole entry): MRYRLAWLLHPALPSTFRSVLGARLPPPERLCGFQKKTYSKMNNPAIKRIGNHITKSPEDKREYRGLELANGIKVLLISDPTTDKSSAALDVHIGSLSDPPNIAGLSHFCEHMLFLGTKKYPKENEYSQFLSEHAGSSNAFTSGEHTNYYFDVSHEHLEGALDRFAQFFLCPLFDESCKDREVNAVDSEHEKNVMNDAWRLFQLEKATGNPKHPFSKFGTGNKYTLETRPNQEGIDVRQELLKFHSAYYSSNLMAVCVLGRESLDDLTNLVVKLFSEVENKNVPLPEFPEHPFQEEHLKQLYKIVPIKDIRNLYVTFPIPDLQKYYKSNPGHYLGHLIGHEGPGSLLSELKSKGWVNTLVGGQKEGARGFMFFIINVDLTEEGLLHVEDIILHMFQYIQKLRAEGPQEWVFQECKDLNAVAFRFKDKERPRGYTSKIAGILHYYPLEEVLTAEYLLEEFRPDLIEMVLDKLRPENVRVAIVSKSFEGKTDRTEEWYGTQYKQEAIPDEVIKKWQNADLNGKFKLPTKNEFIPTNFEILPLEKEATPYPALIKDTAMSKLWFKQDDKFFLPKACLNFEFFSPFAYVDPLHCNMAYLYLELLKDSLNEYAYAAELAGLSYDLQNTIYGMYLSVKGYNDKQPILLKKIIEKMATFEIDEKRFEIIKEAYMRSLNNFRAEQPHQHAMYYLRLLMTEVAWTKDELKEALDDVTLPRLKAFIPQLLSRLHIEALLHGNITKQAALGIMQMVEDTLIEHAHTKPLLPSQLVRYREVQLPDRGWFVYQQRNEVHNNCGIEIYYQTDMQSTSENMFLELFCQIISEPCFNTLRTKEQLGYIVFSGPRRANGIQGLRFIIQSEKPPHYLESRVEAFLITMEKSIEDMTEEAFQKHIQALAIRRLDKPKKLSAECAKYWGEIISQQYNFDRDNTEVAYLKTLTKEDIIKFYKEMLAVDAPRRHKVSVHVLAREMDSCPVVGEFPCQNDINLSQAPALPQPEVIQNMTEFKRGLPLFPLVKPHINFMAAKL
In words: Dose Response: Fluorescence polarization-based cell-based high throughput dose response assay for inhibitors of insulin-degrading enzyme (IDE). [Related pubchem assays: 434962 (Primary screen (IDE inhibitors in singlicate)), 449730 (Counterscreen (Cytotoxicity in triplicate)), 435028 (Confirmation (IDE inhibitors in triplicate)), 434984 (Summary …. The format is functional. For orientation: In fluorescence polarisation assays a small probe gives low polarisation when free and higher when bound to something large.

Assay [2] in a line: Luminescence Cell-Based Dose Confirmation HTS to Identify Inhibitors of Platelet Dense Granule Release. [Related pubchem assays: 1663 (Primary HTS), 1678 (Summary of Project)]. The format is functional.
The target in assay [3] is T3, Neuropeptide Y receptor type 1 (Homo sapiens, UniProt P25929). The format is functional.
Assay [4] concerns the target T4, Neuropeptide Y receptor type 2 (Homo sapiens, UniProt P49146). The format is functional, cell-based.
Assay [5] has as its target Luciferin 4-monooxygenase (Photinus pyralis, UniProt P08659). Nature of the assay: inhibition of purified Photinus pyralis luciferase – biochemical, luminescence, dose response (AID 1891).
For the next assay, the target named is T5, Leucine aminopeptidase (Plasmodium falciparum 3D7, UniProt Q8IL11).
T5 sequence (Q8IL11 whole entry): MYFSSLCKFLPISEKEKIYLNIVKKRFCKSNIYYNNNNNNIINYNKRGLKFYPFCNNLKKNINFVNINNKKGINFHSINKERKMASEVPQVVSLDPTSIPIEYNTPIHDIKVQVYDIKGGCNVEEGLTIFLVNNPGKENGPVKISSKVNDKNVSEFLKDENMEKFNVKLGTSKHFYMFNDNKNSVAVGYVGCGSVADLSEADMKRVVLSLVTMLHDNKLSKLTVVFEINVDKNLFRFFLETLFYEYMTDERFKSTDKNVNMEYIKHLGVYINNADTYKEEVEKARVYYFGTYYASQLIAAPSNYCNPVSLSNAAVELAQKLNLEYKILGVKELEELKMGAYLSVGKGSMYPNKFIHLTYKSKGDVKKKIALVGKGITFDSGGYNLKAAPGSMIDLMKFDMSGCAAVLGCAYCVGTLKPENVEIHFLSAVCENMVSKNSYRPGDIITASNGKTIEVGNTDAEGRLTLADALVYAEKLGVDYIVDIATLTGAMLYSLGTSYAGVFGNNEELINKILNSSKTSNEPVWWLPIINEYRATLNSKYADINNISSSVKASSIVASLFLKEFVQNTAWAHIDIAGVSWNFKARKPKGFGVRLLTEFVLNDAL
In words: P. falciparum M17LAP inhibitors, primary screen, biochemical, fluorogenic H-Leu-NHMec substrate, 1536-well (AID 1619). The format is functional.

A further assay deals with Aspartyl aminopeptidase (Plasmodium falciparum 3D7, UniProt Q8I2J3).
In another assay the target is Procathepsin L (Homo sapiens, UniProt P07711).
In assay [6] the target is T6, Polyadenylate-binding protein 1 (Homo sapiens, UniProt P11940). In words: MLLE domain peptide-binding blockers, IC50 – biochemical, fluorescence polarization, FITC-PAM2 peptide, dose response (AID 602259). The format is functional. The settings on record: read-out: IC50_Mean.
Assay [7] in a line: NIH3T3 cell viability loss – ATP luminescence, mouse fibroblasts, counter-screen, dose response (AID 2010).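 Also: cells exposed to compound for about 90 hours before reading.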 The format is functional, cell-based.
The nature of assay [8]: Trypanosoma cruzi growth suppression in host cells – NIH3T3 host cells, beta-gal luminescence, confirmation (AID 2044).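 Also: intracellular parasites grown in NIH/3T3 mouse fibroblasts as host cells; luminescent beta-galactosidase reporter signal from transgenic T. cruzi replicating inside host cells; inhibitors lower the luminescence signal.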 The format is functional, cell-based.
For assay [9], the target named is Sphingosine 1-phosphate receptor 4 (Homo sapiens, UniProt O95977). In words: Fluorescence dose response cell-based high throughput screening assay for antagonists of the Sphingosine 1-Phosphate Receptor 4 (S1P4). [Related pubchem assays: 1524 (Confirmation in triplicates.), 1510 (Primary screen.)]. The format is functional.
Assay [10] concerns the target Sphingosine 1-phosphate receptor 1 (Homo sapiens, UniProt P21453). The format is functional.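 Also: Tango beta-arrestin reporter U2OS cells stimulated with S1P near its EC80; inhibitor potency meaning antagonism of receptor activation by the natural agonist.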
Assay [11] deals with T6, Polyadenylate-binding protein 1. Nature of the assay: MLLE binding blockers, Cy5 peptide tracer – biochemical, fluorescence polarization, Cy5-PAM2 peptide, secondary, miRNA deadenylation inhibitor project, dose response (AID 602260). The format is functional. The settings on record: read-out: IC50_Mean.
The target of assay [12] is T3, Neuropeptide Y receptor type 1. In words: Fluorescence-based dose response cell-based high-throughput screening assay for agonists of NPY-Y1. [Related pubchem assays: 1697 (Screening assay (NPY-Y1 agonists).), 1359 (Screening assay (NPY-Y2 potentiators or agonists).), 1304 (Screening assay (NPY-Y1 potentiators or agonists).), 1704 (Screening assay (CNGC inhibitors).), 1791 (Summary AID.)]. The format is functional.

The subject of a further assay is HEK293. Nature of the assay: Fluorescence-based counterscreen for potentiators or agonists of NPY-Y1: cell-based high-throughput dose response assay for inhibitors of cyclic nucleotide gated ion channel (CNGC) activity. In this assay, the parental HEK293 cell line transfected with a cyclic-nucleotide gated ion channel (CNGC)-based cAMP sensor is used to measure inhibition of isoproterenol-induced CNGC …. The format is functional. The settings on record: Homo sapiens.

Assay [13] deals with T4, Neuropeptide Y receptor type 2. In words: Fluorescence-based counterscreen for agonists of NPY-Y1: cell-based high-throughput dose response assay for agonists of NPY-Y2. The format is functional.

Active and inactive are the calls of the source.

T3 sequence (P25929 whole entry): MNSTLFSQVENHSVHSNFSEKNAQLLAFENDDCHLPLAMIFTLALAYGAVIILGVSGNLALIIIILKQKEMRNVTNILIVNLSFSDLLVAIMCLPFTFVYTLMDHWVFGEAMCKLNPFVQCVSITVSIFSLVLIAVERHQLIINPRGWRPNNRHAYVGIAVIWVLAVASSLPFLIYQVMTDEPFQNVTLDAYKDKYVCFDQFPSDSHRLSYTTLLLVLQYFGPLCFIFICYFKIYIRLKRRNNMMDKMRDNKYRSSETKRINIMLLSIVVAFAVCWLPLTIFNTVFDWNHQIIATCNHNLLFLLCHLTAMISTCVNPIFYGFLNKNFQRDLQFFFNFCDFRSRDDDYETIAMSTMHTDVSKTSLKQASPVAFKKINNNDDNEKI
T6 sequence (P11940 whole entry, the tested form may be a part): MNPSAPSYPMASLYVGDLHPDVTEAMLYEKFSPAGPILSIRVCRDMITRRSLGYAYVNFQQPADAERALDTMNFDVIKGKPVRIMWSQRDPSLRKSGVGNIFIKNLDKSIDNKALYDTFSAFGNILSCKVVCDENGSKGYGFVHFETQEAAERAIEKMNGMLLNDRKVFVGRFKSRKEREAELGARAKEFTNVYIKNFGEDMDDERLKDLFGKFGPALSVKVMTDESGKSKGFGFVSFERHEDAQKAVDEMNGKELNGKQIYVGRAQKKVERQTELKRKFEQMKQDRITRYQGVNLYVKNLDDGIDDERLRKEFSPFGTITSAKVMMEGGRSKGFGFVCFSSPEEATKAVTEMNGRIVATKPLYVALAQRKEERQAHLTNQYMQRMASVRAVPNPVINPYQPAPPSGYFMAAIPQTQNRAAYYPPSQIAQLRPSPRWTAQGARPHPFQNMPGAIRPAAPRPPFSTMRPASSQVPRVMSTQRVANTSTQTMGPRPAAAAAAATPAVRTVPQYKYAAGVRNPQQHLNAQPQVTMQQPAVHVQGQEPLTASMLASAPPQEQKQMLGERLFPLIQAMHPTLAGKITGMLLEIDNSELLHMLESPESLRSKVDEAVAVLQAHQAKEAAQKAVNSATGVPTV
T4 sequence (P49146 whole entry): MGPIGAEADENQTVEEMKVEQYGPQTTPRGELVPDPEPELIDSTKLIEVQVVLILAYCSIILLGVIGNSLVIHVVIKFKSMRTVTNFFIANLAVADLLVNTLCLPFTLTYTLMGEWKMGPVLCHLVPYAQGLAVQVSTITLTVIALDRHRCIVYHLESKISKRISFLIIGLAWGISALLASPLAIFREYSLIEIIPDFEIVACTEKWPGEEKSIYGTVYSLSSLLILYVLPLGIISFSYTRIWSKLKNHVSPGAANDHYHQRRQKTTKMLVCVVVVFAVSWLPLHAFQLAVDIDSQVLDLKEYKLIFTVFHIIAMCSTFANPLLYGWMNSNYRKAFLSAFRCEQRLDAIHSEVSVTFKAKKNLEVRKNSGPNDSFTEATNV
Chain of Luciferin 4-monooxygenase (P08659 whole entry): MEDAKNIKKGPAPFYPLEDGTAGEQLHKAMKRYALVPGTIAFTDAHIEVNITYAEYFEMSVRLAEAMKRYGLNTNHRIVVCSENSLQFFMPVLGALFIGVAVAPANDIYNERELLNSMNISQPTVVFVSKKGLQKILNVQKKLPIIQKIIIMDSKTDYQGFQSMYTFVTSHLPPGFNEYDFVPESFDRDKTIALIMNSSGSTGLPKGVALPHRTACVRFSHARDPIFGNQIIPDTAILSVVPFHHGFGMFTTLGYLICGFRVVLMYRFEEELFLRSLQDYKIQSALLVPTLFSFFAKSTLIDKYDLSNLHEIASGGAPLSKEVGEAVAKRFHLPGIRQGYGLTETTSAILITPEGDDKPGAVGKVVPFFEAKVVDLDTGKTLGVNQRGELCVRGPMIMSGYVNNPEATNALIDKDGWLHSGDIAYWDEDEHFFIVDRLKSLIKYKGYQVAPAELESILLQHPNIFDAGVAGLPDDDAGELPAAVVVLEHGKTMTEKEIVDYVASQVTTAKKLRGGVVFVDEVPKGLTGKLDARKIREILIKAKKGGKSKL
Chain of Sphingosine 1-phosphate receptor 4 (O95977 whole entry): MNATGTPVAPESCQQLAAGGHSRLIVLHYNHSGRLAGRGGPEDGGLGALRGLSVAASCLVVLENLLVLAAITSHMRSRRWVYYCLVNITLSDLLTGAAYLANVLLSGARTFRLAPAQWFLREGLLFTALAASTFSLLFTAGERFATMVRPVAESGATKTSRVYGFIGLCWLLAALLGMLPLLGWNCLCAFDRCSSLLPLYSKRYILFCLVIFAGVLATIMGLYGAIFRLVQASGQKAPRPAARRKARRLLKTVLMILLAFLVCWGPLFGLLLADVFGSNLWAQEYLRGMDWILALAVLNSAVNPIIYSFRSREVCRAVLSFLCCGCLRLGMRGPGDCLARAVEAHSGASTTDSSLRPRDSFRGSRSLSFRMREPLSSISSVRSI
Chain of Procathepsin L (P07711 whole entry, the tested form may be a part): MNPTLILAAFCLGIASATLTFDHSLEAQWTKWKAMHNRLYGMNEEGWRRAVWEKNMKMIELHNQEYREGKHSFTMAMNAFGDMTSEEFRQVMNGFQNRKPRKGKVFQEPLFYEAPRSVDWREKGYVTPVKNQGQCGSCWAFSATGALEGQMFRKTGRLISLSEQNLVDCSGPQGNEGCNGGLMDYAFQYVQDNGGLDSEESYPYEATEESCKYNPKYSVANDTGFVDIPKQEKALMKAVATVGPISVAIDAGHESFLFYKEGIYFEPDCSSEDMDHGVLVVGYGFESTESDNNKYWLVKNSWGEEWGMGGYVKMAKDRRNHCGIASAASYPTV
Chain of Aspartyl aminopeptidase (Q8I2J3 whole entry): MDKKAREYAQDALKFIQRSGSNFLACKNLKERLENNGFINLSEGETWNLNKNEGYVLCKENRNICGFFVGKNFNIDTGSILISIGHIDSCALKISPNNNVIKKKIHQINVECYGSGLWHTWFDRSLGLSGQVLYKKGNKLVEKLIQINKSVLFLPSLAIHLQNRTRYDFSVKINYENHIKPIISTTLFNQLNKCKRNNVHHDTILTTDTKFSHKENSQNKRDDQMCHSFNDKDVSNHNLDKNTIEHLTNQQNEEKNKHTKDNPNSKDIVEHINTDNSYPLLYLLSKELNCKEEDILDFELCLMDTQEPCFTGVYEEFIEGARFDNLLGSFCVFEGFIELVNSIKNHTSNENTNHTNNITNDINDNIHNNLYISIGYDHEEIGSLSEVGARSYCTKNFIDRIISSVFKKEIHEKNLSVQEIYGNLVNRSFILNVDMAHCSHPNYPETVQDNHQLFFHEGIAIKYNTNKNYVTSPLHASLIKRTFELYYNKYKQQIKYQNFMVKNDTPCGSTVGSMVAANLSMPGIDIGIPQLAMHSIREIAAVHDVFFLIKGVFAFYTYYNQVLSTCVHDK
Chain of Sphingosine 1-phosphate receptor 1 (P21453 whole entry): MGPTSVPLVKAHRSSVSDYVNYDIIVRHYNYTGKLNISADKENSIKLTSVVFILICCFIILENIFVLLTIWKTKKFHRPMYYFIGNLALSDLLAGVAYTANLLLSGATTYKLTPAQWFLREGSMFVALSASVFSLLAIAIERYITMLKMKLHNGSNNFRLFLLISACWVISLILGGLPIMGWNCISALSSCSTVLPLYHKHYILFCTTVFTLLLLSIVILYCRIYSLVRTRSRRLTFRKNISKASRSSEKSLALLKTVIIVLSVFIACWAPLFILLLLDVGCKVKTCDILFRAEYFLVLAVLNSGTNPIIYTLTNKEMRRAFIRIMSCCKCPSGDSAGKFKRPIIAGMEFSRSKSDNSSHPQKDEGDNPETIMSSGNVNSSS
Chain of Large T antigen (P03070 whole entry): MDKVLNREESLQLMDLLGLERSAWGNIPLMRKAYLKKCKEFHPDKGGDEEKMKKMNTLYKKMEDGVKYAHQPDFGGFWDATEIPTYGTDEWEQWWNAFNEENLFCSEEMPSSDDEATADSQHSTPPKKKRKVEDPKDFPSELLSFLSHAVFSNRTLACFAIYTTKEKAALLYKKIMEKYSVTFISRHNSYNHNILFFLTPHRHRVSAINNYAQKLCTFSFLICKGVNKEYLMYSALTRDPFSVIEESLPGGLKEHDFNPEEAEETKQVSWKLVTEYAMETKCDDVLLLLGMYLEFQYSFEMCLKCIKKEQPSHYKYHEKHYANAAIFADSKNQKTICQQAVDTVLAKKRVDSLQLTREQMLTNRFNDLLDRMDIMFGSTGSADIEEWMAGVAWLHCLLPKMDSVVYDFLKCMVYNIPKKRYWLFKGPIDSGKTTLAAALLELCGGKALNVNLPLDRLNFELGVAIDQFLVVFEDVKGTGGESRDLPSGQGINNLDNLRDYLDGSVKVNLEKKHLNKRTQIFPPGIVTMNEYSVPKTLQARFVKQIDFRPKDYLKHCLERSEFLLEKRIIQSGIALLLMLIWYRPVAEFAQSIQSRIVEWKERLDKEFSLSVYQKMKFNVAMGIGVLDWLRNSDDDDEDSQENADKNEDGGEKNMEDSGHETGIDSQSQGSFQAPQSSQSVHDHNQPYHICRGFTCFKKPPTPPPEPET

Turning to `CCOc1ccccc1N1CSC2=C(C#N)C(c3c(OC)ccc4ccccc34)CC(=O)N2C1` (stereo not given), at Large T antigen, the IC50 was 78.8 µM (active). The EC50 – broadly, the concentration giving half of the maximal effect – at Estrogen receptor was 16.1 µM (active).

As to `COc1cccc(NC(=O)COC(=O)/C=C/c2c(C)nn(-c3ccccc3)c2C)c1`, the results for the IC50 (in [1]; on Insulin-degrading enzyme) were > 55.7 µM (not active) and 8.29 µM (active), respectively.

Regarding `O=C(Nc1ccccc1)OCc1cc(-c2ccccc2Cl)on1`, the EC50 in assay [2] and in assay [5] was > 112 µM (not active) in each case. The IC50 is 9 µM (active) in assay [3] and 14.7 µM (not active) in assay [4].

Regarding `O=C(CSc1nc[nH]n1)Nc1ccc([N+](=O)[O-])cc1Br`, the values for the IC50 on Leucine aminopeptidase, on Aspartyl aminopeptidase and against Procathepsin L were 19.9 µM (active), 0.975 µM (active) and > 59.6 µM (not active), respectively.

`Cc1ccnc(N2C(=O)c3cccc4c([N+](=O)[O-])ccc(c34)C2=O)c1`: the IC50 was 23.4 µM (inactive) in assay [6], 1.62 µM (active) in assay [9], 3.43 µM (active) in [10] and > 66 µM (inactive) in assay [11]. Also, the EC50 in assay [7] is > 30 µM (not active); in [8] it was 4.58 µM (active).

`CCC(C)C1C(C#N)=C(N)Oc2[nH]nc(-c3ccccc3)c21` (stereo not given): the EC50 in assay [12] and in assay [13] was > 35.4 µM (not active) in each case. Further, the IC50 with HEK293 was 25 µM (not active).
